According to patent US20240376100A1 (Redona Therapeutics, Inc., priority 2021, published 2024):
Structures can show the parent of a compound that is named as a salt.

molecular target: PAPD5 enzyme (Homo sapiens, UniProt Q8NDF8); assay: PAPD5 assay (AMP incorporation onto 3'-terminus of RNA substrate, fluorescence quench); type: biochemical; details: PAPD5 protein 0.3 nM, ATP 50 μM, 30 minutes preincubation, room temperature; read-out: Potency PAPD5 IC50
Method: The purpose of the PAPD5 assay is to determine compound potency against PAPD5 enzyme through the measurement of IC50. Compound inhibition is measured as a function of AMP incorporation onto the 3′-terminus of an RNA substrate in the presence of active PAPD5, ATP, and inhibitor. The PAPD5 assay was done in a black, non-binding, 384 well plate (Corning #3575). All steps were performed at room temperature. For a typical assay, a 40 ul aliquot of assay buffer (50 mM HEPES pH 7.3, 20 mM KCl, 10 mM MgCl2, 10 mMM DTT, 0.01% Triton X-100, 40 U/ml RNAsin (Promega)) containing PAPD5 protein (final 10 concentration: 0.3 nM) and ATP (final concentration 50 μM) was added to each well. Next, 1 ul of compound in 100% DMSO is transferred from a compound dilution plate in which the compound is serially diluted. The plate was placed on a plate shaker for 30 seconds to produce mixing, then incubated for 30 minutes. Next, 10 ul of a 5× mix of RNA substrate (5′-fluorescein-AUAGAG-3′ (IDT)) and a DNA oligonucleotide that is complementary to the AMP modified RNA product (5′-TCTCTATT-3′-TAMRA, wherein the first two nucleotides are locked nucleic acids (IDT)) was added (final concentrations: 5 nM and 20 nM, respectively). The plate was placed on a plate shaker for 30 seconds to produce mixing then immediately placed in a Biotek Cytation 5 plate reader, and the time-dependent decrease in fluorescein fluorescence resulting from annealing of the TAMRA labeled quenching probe was recorded, using the kinetics mode of the reader (typical run time is 90 minutes). Reaction rates were obtained using linear fits to the early portion of progress curves. IC50 values were calculated using a four-parameter fit with 100% enzyme activity determined from the DMSO control and 0% activity from control samples lacking UTP.
“+” represents an IC50 value that is greater than 50 PM; “++” represents an IC50 value that is greater than 10 μM and equal to or less than 50 μM; “+++” represents an IC50 value that is greater than 1 μM and equal to or less than 10 μM; and “++++” represents an IC50 value that is equal to or less than 1 μM.

PAPD5 enzyme, sequence (Q8NDF8 whole entry): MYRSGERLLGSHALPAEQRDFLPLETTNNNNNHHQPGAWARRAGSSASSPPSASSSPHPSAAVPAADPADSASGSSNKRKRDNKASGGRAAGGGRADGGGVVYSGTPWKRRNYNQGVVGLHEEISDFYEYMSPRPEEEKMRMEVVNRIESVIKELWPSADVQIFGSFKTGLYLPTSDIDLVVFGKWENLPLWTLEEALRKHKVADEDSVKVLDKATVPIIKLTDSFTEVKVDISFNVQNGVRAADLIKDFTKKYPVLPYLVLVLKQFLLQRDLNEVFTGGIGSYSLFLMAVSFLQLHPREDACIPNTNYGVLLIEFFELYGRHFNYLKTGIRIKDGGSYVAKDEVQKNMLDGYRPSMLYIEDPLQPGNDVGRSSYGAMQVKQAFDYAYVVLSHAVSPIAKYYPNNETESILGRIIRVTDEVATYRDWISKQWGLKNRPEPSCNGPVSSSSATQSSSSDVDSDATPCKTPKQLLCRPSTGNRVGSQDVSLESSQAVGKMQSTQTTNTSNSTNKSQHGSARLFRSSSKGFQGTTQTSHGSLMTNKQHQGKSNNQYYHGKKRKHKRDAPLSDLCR

Compound | IC50
O=C(O)c1cn(-c2cnccn2)c2nc(N3Cc4cccnc4C3)c(Cl)cc2c1=O [Example 2, 6-chloro-4-oxo-1-(pyrazin-2-yl)-7{5H,6H,7H pyrrolo[3,4-b]pyridin-6-yl}-1,4-dihydro-1,8-naphthyridine-3-carboxylic acid] | ≤ 1000 nM
Cc1cc(NC(=O)OC(C)(C)C)ncc1-n1cc(C(=O)O)c(=O)c2cc(Cl)c(N3Cc4cccnc4C3)cc21 [Example 4, 1-(6-{[(tert-butoxy)carbonyl]amino}-4-methylpyridin-3-yl)-6-chloro-4-oxo-7-{5H,6H,7H-pyrrolo[3,4-b]pyridin-6-yl}-1,4-dihydroquinoline-3-carboxylic acid] | ≤ 1000 nM
Cc1cc(N)ncc1-n1cc(C(=O)O)c(=O)c2cc(Cl)c(N3Cc4cccnc4C3)cc21 [Example 5, 1-(6-amino-4-methylpyridin-3-yl)-6-chloro-4-oxo-7-{5H,6H,7H-pyrrolo[3,4-b]pyridin-6-yl}-1,4-dihydroquinoline-3-carboxylicacid hydrochloride] | ≤ 1000 nM
O=C(O)c1cn(CC2CCC2)c2nc(N3Cc4cccnc4C3)c(Cl)cc2c1=O [Example 6, 6-chloro-1-(cyclobutylmethyl)-4-oxo-7-{5H,6H,7H-pyrrolo[3,4-b]pyridin-6-yl}-1,4-dihydro-1,8-naphthyridine-3-carboxylic acid] | ≤ 1000 nM
N#Cc1cc2c(=O)c(C(=O)O)cn(CC3CCC3)c2nc1N1Cc2cccnc2C1 [Example 7, 6-cyano-1-(cyclobutylmethyl)-4-oxo-7-{5H,6H,7H-pyrrolo[3,4-b]pyridin-6-yl}-1,4-dihydro-1,8-naphthyridine-3-carboxylic acid] | ≤ 1000 nM
O=C(O)c1cn(-c2ccc(O)cc2F)c2cc(-n3ncc4cccc(Br)c43)c(F)cc2c1=O [Example 9, 7-(7-bromo-1H-indazol-1-yl)-6-fluoro-1-(2-fluoro-4-hydroxyphenyl)-4-oxo-1,4-dihydroquinoline-3-carboxylic acid] | ≤ 1000 nM
O=C(O)c1cn(-c2ccc(O)cc2F)c2cc(-n3ncc4cc(Cl)cc(Cl)c43)c(F)cc2c1=O [Example 10, 7-(5,7-dichloro-1H-indazol-1-yl)-6-fluoro-1-(2-fluoro-4-hydroxyphenyl)-4-oxo-1,4-dihydroquinoline-3-carboxylic acid] | ≤ 1000 nM
Cc1nn(-c2cc3c(cc2F)c(=O)c(C(=O)O)cn3-c2ccc(O)cc2F)cc1Br [Example 11, 7-(4-bromo-3-methyl-1H-pyrazol-1-yl)-6-fluoro-1-(2-fluoro-4-hydroxyphenyl)-4-oxo-1,4-dihydroquinoline-3-carboxylic acid] | ≤ 1000 nM
O=C(O)c1cn(-c2ccc(O)cc2F)c2cc(-n3ccc(Cl)n3)c(F)cc2c1=O [Example 12, 7-(3-chloro-1H-pyrazol-1-yl)-6-fluoro-1-(2-fluoro-4-hydroxyphenyl)-4-oxo-1,4-dihydroquinoline-3-carboxylic acid] | ≤ 1000 nM
COc1ccc2c(c1)CN(c1cc3c(cc1F)c(=O)c(C(=O)O)cn3-c1ccc(O)cc1F)C2 [Example 14, 6-fluoro-1-(2-fluoro-4-hydroxyphenyl)-7-(5-methoxyisoindolin-2-yl)-4-oxo-1,4-dihydroquinoline-3-carboxylic acid] | ≤ 1000 nM
O=C(O)c1cn(-c2ccc(O)cc2F)c2cc(N3Cc4cccc(F)c4C3)c(F)cc2c1=O [Example 15, 6-fluoro-1-(2-fluoro-4-hydroxyphenyl)-7-(4-fluoroisoindolin-2-yl)-4-oxo-1,4-dihydroquinoline-3-carboxylic acid] | ≤ 1000 nM
O=C(O)c1cn(-c2ccc(O)cc2)c2cc(N3Cc4ccncc4C3)c(F)cc2c1=O [Example 19, 7-(1,3-dihydro-2H-pyrrolo[3,4-c]pyridin-2-yl)-6-fluoro-1-(4-hydroxyphenyl)-4-oxo-1,4-dihydroquinoline-3-carboxylic acid] | ≤ 1000 nM
O=C(O)c1cn(-c2cnccn2)c2cc(N3Cc4ccccc4C3)c(Cl)cc2c1=O [Example 21, 6-chloro-7-(isoindolin-2-yl)-4-oxo-1-(pyrazin-2-yl)-1,4-dihydroquinoline-3-carboxylic acid] | ≤ 1000 nM
CN(C)C1CN(c2ccc(-n3cc(C(=O)O)c(=O)c4cc(Cl)c(N5Cc6cccnc6C5)nc43)cn2)C1 [Example 22, 6-chloro-7-(5,7-dihydro-6H-pyrrolo[3,4-b]pyridin-6-yl)-1-(6-(3-(dimethylamino)azetidin-1-yl)pyridin-3-yl)-4-oxo-1,4-dihydro-1,8-naphthyridine-3-carboxylic acid] | ≤ 1000 nM
Cc1nc(N)ccc1-n1cc(C(=O)O)c(=O)c2cc(Cl)c(N3Cc4cccnc4C3)cc21 [Example 24, 1-(6-amino-2-methylpyridin-3-yl)-6-chloro-7-(5,7-dihydro-6H-pyrrolo[3,4-b]pyridin-6-yl)-4-oxo-1,4-dihydroquinoline-3-carboxylic acid] | ≤ 1000 nM
Cc1cc(N2CC(N(C)C)C2)ncc1-n1cc(C(=O)O)c(=O)c2cc(Cl)c(N3Cc4cccnc4C3)cc21 [Example 25, 6-chloro-7-(5,7-dihydro-6H-pyrrolo[3,4-b]pyridin-6-yl)-1-(6-(3-(dimethylamino)azetidin-1-yl)-4-methylpyridin-3-yl)-4-oxo-1,4-dihydroquinoline-3-carboxylic acid] | ≤ 1000 nM
O=C(O)c1cn(-c2ccc(O)cc2F)c2cc(N3Cc4ccccc4C3)c(Cl)cc2c1=O [Example 30, 6-chloro-1-(2-fluoro-4-hydroxyphenyl)-7-(isoindolin-2-yl)-4-oxo-1,4-dihydroquinoline-3-carboxylic acid] | ≤ 1000 nM
O=C(O)c1cn(-c2ccc(O)cc2F)c2cc(N3Cc4ccccc4C3)c(F)cc2c1=O [Example 32, 6-fluoro-1-(2-fluoro-4-hydroxyphenyl)-7-(isoindolin-2-yl)-4-oxo-1,4-dihydroquinoline-3-carboxylic acid] | ≤ 1000 nM

Other lines, results leading:

IC50 | Compound
≤ 1000 nM | O=C(O)c1cn(-c2ccc(O)c(F)c2)c2cc(N3Cc4cccnc4C3)c(Cl)cc2c1=O [Example 3, 6-chloro-1-(3-fluoro-4-hydroxyphenyl)-4-oxo-7-{5H,6H,7H-pyrrolo[3,4-b]pyridin-6-yl}-1,4-dihydroquinoline-3-carboxylic acid]
≤ 1000 nM | O=C(O)c1cn(-c2ccc(O)cc2)c2cc(N3Cc4cccnc4C3)c(Cl)cc2c1=O [Example 16, 6-chloro-7-(5,7-dihydro-6H-pyrrolo[3,4-b]pyridin-6-yl)-1-(4-hydroxyphenyl)-4-oxo-1,4-dihydroquinoline-3-carboxylic acid]
≤ 1000 nM | O=C(O)c1cn(-c2ccc(CO)cc2F)c2cc(N3Cc4cccnc4C3)c(Cl)cc2c1=O [Example 17, 6-chloro-7-(5,7-dihydro-6H-pyrrolo[3,4-b]pyridin-6-yl)-1-(2-fluoro-4-(hydroxymethyl)phenyl)-4-oxo-1,4-dihydroquinoline-3-carboxylic acid]
≤ 1000 nM | O=C(O)c1cn(-c2ccc(O)cc2)c2cc(N3Cc4cccnc4C3)c(F)cc2c1=O [Example 18, 7-(5,7-dihydro-6H-pyrrolo[3,4-b]pyridin-6-yl)-6-fluoro-1-(4-hydroxyphenyl)-4-oxo-1,4-dihydroquinoline-3-carboxylic acid]
≤ 1000 nM | Nc1ncc(-n2cc(C(=O)O)c(=O)c3cc(Cl)c(N4Cc5cccnc5C4)cc32)cc1F [Example 23, 1-(6-amino-5-fluoropyridin-3-yl)-6-chloro-7-(5,7-dihydro-6H-pyrrolo-[3,4-b]pyridin-6-yl)-4-oxo-1,4-dihydroquinoline-3-carboxylic acid]
≤ 1000 nM | O=C(O)c1cn(-c2ccc(O)cc2F)c2cc(N3Cc4cccnc4C3)c(Cl)cc2c1=O [Example 27, 6-chloro-7-(5,7-dihydro-6H-pyrrolo[3,4-b]pyridin-6-yl)-1-(2-fluoro-4-hydroxyphenyl)-4-oxo-1,4-dihydroquinoline-3-carboxylic acid]
≤ 1000 nM | O=C(O)c1cn(-c2ccc(O)c(F)c2)c2cc(N3Cc4cccnc4C3)c(F)cc2c1=O [Example 28, 7-(5,7-dihydro-6H-pyrrolo[3,4-b]pyridin-6-yl)-6-fluoro-1-(3-fluoro-4-hydroxyphenyl)-4-oxo-1,4-dihydroquinoline-3-carboxylic acid]
≤ 1000 nM | O=C(O)c1cn(-c2ccc(O)cc2F)c2cc(N3Cc4cccnc4C3)c(F)cc2c1=O [Example 29, 7-(5,7-dihydro-6H-pyrrolo[3,4-b]pyridin-6-yl)-6-fluoro-1-(2-fluoro-4-hydroxyphenyl)-4-oxo-1,4-dihydroquinoline-3-carboxylic acid]
≤ 1000 nM | O=C(O)c1cn(-c2ccc(O)c(F)c2)c2cc(N3Cc4ccccc4C3)c(F)cc2c1=O [Example 31, 6-fluoro-1-(3-fluoro-4-hydroxyphenyl)-7-(isoindolin-2-yl)-4-oxo-1,4-dihydroquinoline-3-carboxylic acid]
